Test results taken from patent publication US6211214A, “Biphenyl ether oxazolines and their use as pest-control agents” (Bayer Aktiengesellschaft, priority 1995, dated 2001).

Tests used:
[1] = log p (partition coefficient octanol/water, determined experimentally from reversed phase HPLC); assay type: physicochemical; conditions: reversed phase hplc
From the text: [log p=logarithm of the partition coefficient p of the substance between the solvents octanol and water, determined experimentally from reversed phase HPLC]

[2] = test system: caterpillars of the owlet moth (Spodoptera frugiperda); experiment: Spodoptera frugiperda test (cabbage leaves dipped); assay type: in vivo; conditions: Spodoptera frugiperda, 168 h; after 7 days, 0.1% active compound; read-out: destruction
Experimental: Spodoptera Frugiperda-Test Solvent: 7 parts by weight of dimethylformamide Emulsifier: 1 part by weight of alkylaryl polyglycol ether To produce a suitable preparation of active compound, 1 part by weight of active compound is mixed with the stated amount of solvent and the stated amount of emulsifier, and the concentrate is diluted with water to the desired concentration. Cabbage leaves (Brassica oleracea) are treated by being dipped into the preparation of active compound of the desired concentration and are infested with caterpillars of the owlet moth (Spodoptera frugiperda), as long as the leaves are still moist.

[3] = test system: mustard beetle larvae (Phaedon cochleariae); experiment: Phaedon larvae test (cabbage leaves dipped); assay type: in vivo; conditions: Phaedon cochleariae, 168 h; after 7 days, 0.01% active compound; read-out: destruction
Experimental: Phaedon Larvae Test Solvent: 7 parts by weight of dimethylformamide Emulsifier: 1 part by weight of alkylaryl polyglycol ether To produce a suitable preparation of active compound, 1 part by weight of active compound is mixed with the stated amount of solvent and the stated amount of emulsifier, and the concentrate is diluted with water to the desired concentration. Cabbage leaves (Brassica oleracea) are treated by being dipped into the preparation of the active compound of the desired concentration and are infested with mustard beetle larvae (Phaedon cochleariae), as long as the leaves are still moist.

chromatographic logP [1] | chromatographic logP ([1]; A isomer) | chromatographic logP ([1]; B isomer) | SMILES | mortality at 0.1 % strength [2] [%] | mortality at 0.01 % strength [3] [%]
4.43 |  |  | CC(C)(C)OC(=O)COc1ccc(-c2ccc(C3COC(c4c(F)cccc4F)=N3)cc2)cc1 (stereo not shown) [Example 10] | 100 | 
 |  |  | CON=C(C)COc1ccc(-c2ccc(C3COC(c4c(F)cccc4F)=N3)cc2)cc1 (stereo not shown) [Example 13] |  | 100
 |  |  | N#CCCCOc1ccc(-c2ccc(C3COC(c4c(F)cccc4F)=N3)cc2)cc1 (stereo not shown) [Example 14] | 100 | 100
4.74 |  |  | CCOC(CCOc1ccc(-c2ccc(C3COC(c4c(F)cccc4F)=N3)cc2)cc1)OCC (stereo not shown) [Example 16] | 100 | 100
4.56 |  |  | COC(=O)C(Oc1ccc(-c2ccc(C3COC(c4c(F)cccc4F)=N3)cc2)cc1)C(C)C (stereo not shown) [Example 18] | 100 | 
 |  |  | CC(Oc1ccc(-c2ccc(C3COC(c4c(F)cccc4F)=N3)cc2)cc1)C1=NOCCO1 (stereo not shown) [Example 20] | 100 | 100
 |  |  | CCCC(C#N)Oc1ccc(-c2ccc(C3COC(c4c(F)cccc4F)=N3)cc2)cc1 (stereo not shown) [Example 21] | 100 | 100
 | 6.18 | 5.87 | CCON=C(COc1ccc(-c2ccc(C3COC(c4c(F)cccc4F)=N3)cc2)cc1)c1cccc(C(F)(F)F)c1 (stereo not shown) [Example 122] |  | 
 | 6.15 | 6.3 | CC(=NOC(C)C)C(C)Oc1ccc(-c2ccc(C3COC(c4c(F)cccc4Cl)=N3)cc2)cc1 (stereo not shown) [Example 123] |  | 
 | 5.78 | 5.88 | CC(COc1ccc(-c2ccc(C3COC(c4c(F)cccc4Cl)=N3)cc2)cc1)=NOC(C)C (stereo not shown) [Example 124] |  | 
 | 5.04 | 5.11 | C=CCON=C(C)COc1ccc(-c2ccc(C3COC(c4c(F)cccc4Cl)=N3)cc2)cc1 (stereo not shown) [Example 125] |  | 
 | 5.45 | 5.53 | CC(COc1ccc(-c2ccc(C3COC(c4c(F)cccc4Cl)=N3)cc2)cc1)=NOCc1ccccc1 (stereo not shown) [Example 126] |  | 
 | 5.06 | 5.15 | CON=C(C)C(C)Oc1ccc(-c2ccc(C3COC(c4c(F)cccc4F)=N3)cc2)cc1Cl (stereo not shown) [Example 127] |  | 
 | 5.27 | 5.54 | CON=C(COc1ccc(-c2ccc(C3COC(c4c(F)cccc4F)=N3)cc2)cc1)c1ccc(Cl)cc1 (stereo not shown) [Example 130] |  | 
 | 5.61 | 5.54 | CCON=C(COc1ccc(-c2ccc(C3COC(c4c(F)cccc4F)=N3)cc2)cc1)c1ccc(Cl)cc1 (stereo not shown) [Example 131] |  | 
4.78 |  |  | O=C(COc1ccc(-c2ccc(C3COC(c4c(F)cccc4F)=N3)cc2)cc1)c1cc(Cl)ccc1Cl (stereo not shown) [Example 132] |  | 
 | 5.07 | 5.35 | CON=C(COc1ccc(-c2ccc(C3COC(c4c(F)cccc4F)=N3)cc2)cc1)c1ccc(C)cc1 (stereo not shown) [Example 133] |  | 
 | 5.42 | 5.71 | CCON=C(COc1ccc(-c2ccc(C3COC(c4c(F)cccc4F)=N3)cc2)cc1)c1ccc(C)cc1 (stereo not shown) [Example 134] |  | 
 | 5.53 | 5.61 | CC(COc1ccc(-c2ccc(C3COC(c4ccccc4Cl)=N3)cc2)cc1)=NOC(C)C (stereo not shown) [Example 135] |  | 
 | 5.88 | 6.02 | CC(=NOC(C)C)C(C)Oc1ccc(-c2ccc(C3COC(c4ccccc4Cl)=N3)cc2)cc1 (stereo not shown) [Example 136] |  | 
 | 5.55 | 5.62 | CC(COc1ccc(-c2ccc(C3COC(c4ccccc4Cl)=N3)cc2)cc1)=NOCc1ccccc1 (stereo not shown) [Example 137] |  | 
 | 4.78 | 4.98 | CON=C(COc1ccc(-c2ccc(C3COC(c4c(F)cccc4F)=N3)cc2)cc1)c1ccc(C(F)F)cc1 (stereo not shown) [Example 138] |  | 
 | 5.07 | 5.31 | CCON=C(COc1ccc(-c2ccc(C3COC(c4c(F)cccc4F)=N3)cc2)cc1)c1ccc(C(F)F)cc1 (stereo not shown) [Example 139] |  | 
 | 5.57 | 5.88 | CON=C(COc1ccc(-c2ccc(C3COC(c4c(F)cccc4F)=N3)cc2)cc1)c1ccc(Cl)c(C)c1 (stereo not shown) [Example 140] |  | 
 | 5.93 | 6.23 | CCON=C(COc1ccc(-c2ccc(C3COC(c4c(F)cccc4F)=N3)cc2)cc1)c1ccc(Cl)c(C)c1 (stereo not shown) [Example 141] |  | 
 | 5.12 | 5.2 | C=CCON=C(C)COc1ccc(-c2ccc(C3COC(c4ccccc4Cl)=N3)cc2)cc1 (stereo not shown) [Example 142] |  | 
 | 5.45 | 5.57 | C=CCON=C(C)C(C)Oc1ccc(-c2ccc(C3COC(c4ccccc4Cl)=N3)cc2)cc1 (stereo not shown) [Example 143] |  | 

chromatographic logP [1] | chromatographic logP ([1]; A isomer) | chromatographic logP ([1]; B isomer) | SMILES | mortality at 0.1 % strength [2] [%] | mortality at 0.01 % strength [3] [%]
 | 5.83 | 6.01 | CCON=C(C)C(C)Oc1ccc(-c2ccc(C3COC(c4ccccc4Cl)=N3)cc2)cc1Cl (stereo not shown) [Example 144] |  | 
 | 6.3 | 6.44 | CC(=NOC(C)C)C(C)Oc1ccc(-c2ccc(C3COC(c4ccccc4Cl)=N3)cc2)cc1Cl (stereo not shown) [Example 145] |  | 
 | 5.87 | 6 | CC(=NOC(C)C)C(C)Oc1ccc(-c2ccc(C3COC(c4c(F)cccc4F)=N3)cc2)cc1Cl (stereo not shown) [Example 146] |  | 
 | 5.49 | 5.58 | C=CCON=C(C)C(C)Oc1ccc(-c2ccc(C3COC(c4c(F)cccc4F)=N3)cc2)cc1Cl (stereo not shown) [Example 147] |  | 
4.62 |  |  | Cc1ccc(C(=O)COc2ccc(-c3ccc(C4COC(c5c(F)cccc5F)=N4)cc3)cc2)cc1C (stereo not shown) [Example 148] |  | 
 | 4.7 | 4.91 | CON=C(COc1ccc(-c2ccc(C3COC(c4c(F)cccc4F)=N3)cc2)cc1)c1ccc(OC)cc1 (stereo not shown) [Example 149] |  | 
 | 5.04 | 5.27 | CCON=C(COc1ccc(-c2ccc(C3COC(c4c(F)cccc4F)=N3)cc2)cc1)c1ccc(OC)cc1 (stereo not shown) [Example 150] |  | 
4.48 |  |  | CC(=O)C(C)(C)Oc1ccc(-c2ccc(C3COC(c4c(F)cccc4Cl)=N3)cc2)cc1 (stereo not shown) [Example 151] |  | 
4.56 |  |  | CC(=O)C(C)(C)Oc1ccc(-c2ccc(C3COC(c4ccccc4Cl)=N3)cc2)cc1 (stereo not shown) [Example 152] |  | 
4.61 |  |  | CC(=O)C(C)(C)Oc1ccc(-c2ccc(C3COC(c4c(F)cccc4F)=N3)cc2)cc1Cl (stereo not shown) [Example 153] |  | 
 | 6.34 | 6.05 | CON=C(COc1ccc(-c2ccc(C3COC(c4c(F)cccc4F)=N3)cc2)cc1)c1ccc(CC(C)C)cc1 (stereo not shown) [Example 154] |  | 
 | 6.7 | 6.36 | CCON=C(COc1ccc(-c2ccc(C3COC(c4c(F)cccc4F)=N3)cc2)cc1)c1ccc(CC(C)C)cc1 (stereo not shown) [Example 155] |  | 
 | 5.28 | 5.04 | CON=C(COc1ccc(-c2ccc(C3COC(c4c(F)cccc4F)=N3)cc2)cc1)c1ccc(OC(F)(F)C(F)F)cc1 (stereo not shown) [Example 157] |  | 
 | 5.59 | 5.35 | CCON=C(COc1ccc(-c2ccc(C3COC(c4c(F)cccc4F)=N3)cc2)cc1)c1ccc(OC(F)(F)C(F)F)cc1 (stereo not shown) [Example 158] |  | 
5.45 |  |  | CON=C(C)C(C)(C)Oc1ccc(-c2ccc(C3COC(c4c(F)cccc4Cl)=N3)cc2)cc1 (stereo not shown) [Example 160] |  | 
5.88 |  |  | CCON=C(C)C(C)(C)Oc1ccc(-c2ccc(C3COC(c4c(F)cccc4Cl)=N3)cc2)cc1 (stereo not shown) [Example 161] |  | 
 | 3.82 | 3.39 | CC(=NO)C(C)(C)Oc1ccc(-c2ccc(C3COC(c4c(F)cccc4F)=N3)cc2)cc1 (stereo not shown) [Example 167] |  | 
5.61 |  |  | CON=C(C)C(C)(C)Oc1ccc(-c2ccc(C3COC(c4c(F)cccc4F)=N3)cc2)cc1Cl (stereo not shown) [Example 170] |  | 
5.05 |  |  | CCON=C(C)C(C)(C)Oc1ccc(-c2ccc(C3COC(c4c(F)cccc4F)=N3)cc2)cc1Cl (stereo not shown) [Example 171] |  | 
5.02 |  |  | CC(=O)C(C)(C)Oc1ccc(-c2ccc(C3COC(c4ccccc4Cl)=N3)cc2)cc1Cl (stereo not shown) [Example 173] |  | 
6.06 |  |  | CON=C(C)C(C)(C)Oc1ccc(-c2ccc(C3COC(c4ccccc4Cl)=N3)cc2)cc1Cl (stereo not shown) [Example 175] |  | 
6.49 |  |  | CCON=C(C)C(C)(C)Oc1ccc(-c2ccc(C3COC(c4ccccc4Cl)=N3)cc2)cc1Cl (stereo not shown) [Example 176] |  | 
 | 5.58 | 5.29 | CON=C(COc1ccc(-c2ccc(C3COC(c4c(F)cccc4F)=N3)cc2)cc1)c1ccc(C)c(C)c1 (stereo not shown) [Example 189] |  | 
 | 5.94 | 5.62 | CCON=C(COc1ccc(-c2ccc(C3COC(c4c(F)cccc4F)=N3)cc2)cc1)c1ccc(C)c(C)c1 (stereo not shown) [Example 190] |  | 
 | 5.62 | 5.44 | CON=C(COc1ccc(-c2ccc(C3COC(c4c(F)cccc4F)=N3)cc2)cc1)c1cc(Cl)ccc1Cl (stereo not shown) [Example 191] |  | 
 | 6 | 5.79 | CCON=C(COc1ccc(-c2ccc(C3COC(c4c(F)cccc4F)=N3)cc2)cc1)c1cc(Cl)ccc1Cl (stereo not shown) [Example 192] |  | 
